In patent US3953478A, “Tetrahydrofuranyl bromoacetates biocides” (Stauffer Chemical Company, priority 1975, dated 1976):
≈ marks a conversion by molar mass, not a printed value.

What was measured:
Assay type in all cases: cell-based
Staphylococcus aureus = assay: Staphylococcus Aureus Use Dilution Test; conditions: Tryptic Soy Broth, 24 hours at 37°C, minimum concentration in which no growth occurs, read-out: Minimum Inhibitory Concentration
Description: This test measures the bacteriostatic effectiveness of a particular test compound against Staphylococcus aureus. Tryptic Soy Broth is dispensed aseptically into sterile 13 × 100 mm clear glass culture tubes. The first tube receives 3.6 ml of medium and tubes 2 through 10 receive 2.0 ml of medium. The test compound is dissolved in acetone to give 10 ml of a solution of 0.10% of the test compound. Using a sterile syringe, 0.4 ml of the test compound solution is placed in the first tube containing the 3.6 ml of sterile broth and mixed thoroughly. This operation is continued through to the tenth tube. From the tenth tube, 2.0 ml of solution is removed and discarded. Each tube is then inoculated with 0.1 ml of a 24-hour culture of Staphylococcus aureus in Tryptic Soy Broth, and the mixture is mixed thoroughly using a Vortex mixer. A control is also set up to be sure that the inoculum is viable using a tube of sterile broth containing no added toxicant. The tubes are incubated for 24 hours at 37°C. The tubes are then examined to determine growth of the organism in the culture tubes. The minimum concentration in which no growth of the organism occurs is recorded. The following table gives the minimum inhibitory concentration necessary to control the organism: […]

[1] = test system: Trichophyton mentagrophytes; assay: In Vitro Agar Screening Test; conditions: Emmons agar, 30°C, levels 1, 5, 10, 50 μg/ml, read-out: Minimum Inhibitory Concentration
Description: (§1) This test measures the bactericidal, fungicidal and algaecidal properties of a compound when in contact with growing bacteria, fungi or algae in an artificial medium. The test is conducted by adding 20 ml portions of a suitable warm sterile agar solution into 20 × 100 mm Petri dishes at levels of 1, 5, 10 and 50 μg/ml and mixed with the warm mobile agar solution. The treated agar mixture is then allowed to come to room temperature and solidify. Cells of the chosen organism are streaked on the surface of the solidified agar and are then incubated for such lengths of time that untreated samples containing no toxicant show luxurious growth typical of the particular organism. This time varies from 24 hours to 1 week depending on the particular organism. The fungi are incubated at 30°C and the bacteria are incubated at 37°C. The algae are incubated at room temperature under artificial light. Nutrient agar is used as the medium in this test for the bacteria. Potato dextrose agar is used as the medium for the fungi with the exception of Trichophyton mentagrophytes for which Emmons agar is used. A modified Jack Meyers agar is used for the growth of the algae.
(§2) The extent of growth is noted at the end of the incubation period.

Euglena gracilis = assay: In Vitro Agar Screening Test; conditions: modified Jack Meyers agar, room temperature, artificial light, levels 1, 5, 10, 50 μg/ml, read-out: Minimum Inhibitory Concentration
Description: as §1, §2

Enterobacter aerogenes = assay: In Vitro Agar Screening Test; conditions: Klebsiella aerogenes, nutrient agar, 37°C, levels 1, 5, 10, 50 μg/ml, read-out: Minimum Inhibitory Concentration
Description: as §1, §2

Aspergillus oryzae = assay: In Vitro Agar Screening Test; conditions: potato dextrose agar, 30°C, levels 1, 5, 10, 50 μg/ml, read-out: Minimum Inhibitory Concentration
Description: as §1, §2

Pencillium expansum = assay: In Vitro Agar Screening Test; conditions: potato dextrose agar, 30°C, levels 1, 5, 10, 50 μg/ml, read-out: Minimum Inhibitory Concentration
Description: as §1, §2

Aspergillus niger = assay: In Vitro Agar Screening Test; conditions: potato dextrose agar, 30°C, levels 1, 5, 10, 50 μg/ml, read-out: Minimum Inhibitory Concentration
Description: as §1, §2

Pencillium ochra-chloron = assay: In Vitro Agar Screening Test; conditions: potato dextrose agar, 30°C, levels 1, 5, 10, 50 μg/ml, read-out: Minimum Inhibitory Concentration
Description: as §1, §2

Bacillus cereus = assay: In Vitro Agar Screening Test; conditions: nutrient agar, 37°C, levels 1, 5, 10, 50 μg/ml, read-out: Minimum Inhibitory Concentration
Description: as §1, §2

Chlorella pyrenoidosa = assay: In Vitro Agar Screening Test; conditions: Auxenochlorella pyrenoidosa, modified Jack Meyers agar, room temperature, artificial light, levels 1, 5, 10, 50 μg/ml, read-out: Minimum Inhibitory Concentration
Description: as §1, §2

Pseudomonas fluorescens = assay: In Vitro Agar Screening Test; conditions: nutrient agar, 37°C, levels 1, 5, 10, 50 μg/ml, read-out: Minimum Inhibitory Concentration
Description: as §1, §2

Aspergillus fumigatus = assay: In Vitro Agar Screening Test; conditions: potato dextrose agar, 30°C, levels 1, 5, 10, 50 μg/ml, read-out: Minimum Inhibitory Concentration
Description: as §1, §2

Scenedesmus obliquus = assay: In Vitro Agar Screening Test; conditions: Tetradesmus obliquus, modified Jack Meyers agar, room temperature, artificial light, levels 1, 5, 10, 50 μg/ml, read-out: Minimum Inhibitory Concentration
Description: as §1, §2

Trichoderma sp. = assay: In Vitro Agar Screening Test; conditions: potato dextrose agar, 30°C, levels 1, 5, 10, 50 μg/ml, read-out: Minimum Inhibitory Concentration
Description: as §1, §2

Escherichia coli = assay: In Vitro Agar Screening Test; conditions: nutrient agar, 37°C, levels 1, 5, 10, 50 μg/ml, read-out: Minimum Inhibitory Concentration
Description: as §1, §2

Pseudomonas aeruginosa = assay: In Vitro Agar Screening Test; conditions: nutrient agar, 37°C, levels 1, 5, 10, 50 μg/ml, read-out: Minimum Inhibitory Concentration
Description: as §1, §2

## O=C(CBr)OC1CCOC1 (stereo not shown) [Compound No. 1, 3-bromoacetoxy tetrahydrofuran]
Staphylococcus aureus
  MIC: 12.5 µg/mL (≈ 59.8 µM)
[1]
  MIC: 50 µg/mL (≈ 239 µM)
Euglena gracilis
  MIC: 5 µg/mL (≈ 23.9 µM)
Enterobacter aerogenes
  MIC: 50 µg/mL (≈ 239 µM)
Aspergillus oryzae
  MIC: 50 µg/mL (≈ 239 µM)
Pencillium expansum
  MIC: 50 µg/mL (≈ 239 µM)
Aspergillus niger
  MIC: 5 µg/mL (≈ 23.9 µM)
Pencillium ochra-chloron
  MIC: 50 µg/mL (≈ 239 µM)
Bacillus cereus
  MIC: 50 µg/mL (≈ 239 µM)
Chlorella pyrenoidosa
  MIC: 1 µg/mL (≈ 4.78 µM)
Pseudomonas fluorescens
  MIC: > 50 µg/mL
Aspergillus fumigatus
  MIC: 50 µg/mL (≈ 239 µM)
Scenedesmus obliquus
  MIC: 1 µg/mL (≈ 4.78 µM)
Trichoderma sp.
  MIC: 50 µg/mL (≈ 239 µM)
Escherichia coli
  MIC: > 50 µg/mL
Pseudomonas aeruginosa
  MIC: > 50 µg/mL
